Values joined by “and” are separate entries in the source; they are usually repeats but may differ in a detail not shown here. Equal entries are not always repeated.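 Test compounds were applied to cells in 96-well plates for 48 hours at 5 doses. GI50 = concentration required for 50% inhibition of growth. TGI: total growth inhibition.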
How the values were obtained:
Assay in all cases: DTP human tumour cell line panel, 48 h
[1] = tested on: ACHN renal
[2] = tested on: DLD-1 colon
[3] = tested on: KM20L2 colon
[4] = tested on: SNB-19 CNS
[5] = tested on: HCT-116 colon
[6] = tested on: NCI-H23 lung
[7] = tested on: A549 NSCLC
[8] = tested on: IGROV1 ovarian
[9] = tested on: OVCAR-5 ovarian
[10] = tested on: EKVX NSCLC

Compound | TGI [1] [µM] | TGI [2] [µM] | TGI [3] | TGI [4] | TGI [5] | TGI [6] | TGI [7] | TGI [8] [µM] | TGI [9] | TGI [10] | GI50 [3] [nM] | GI50 [4] [µM] | GI50 [5] [µM] | GI50 [6] [µM] | GI50 [7] [µM] | GI50 [9] [µM] | GI50 [10] [µM]
COc1cc2c(cc1OC)[C@@H]([C@H](O)c1ccccc1)NCC2 | > 100 | > 100 | > 100 µM | > 100 µM | > 100 µM | > 100 µM | > 100 µM | > 100 | > 100 µM | > 100 µM |  |  |  |  |  |  | 
Cc1ccc2c(CC(=O)O)cc(=O)oc2c1 | > 100 | > 100 | > 100 µM | > 100 µM | > 100 µM | > 100 µM | > 100 µM | > 100 | > 100 µM | > 100 µM |  |  |  |  |  |  | 
O=C(CC1C(=O)Nc2ccccc2S1(=O)=O)Nc1cccc(Cl)c1 (centres undefined) | 33.5 | 32.7 | 42.3 µM | 46.8 µM | 32.1 µM | 37.9 µM | 40.8 µM | 33.4 | 59.1 µM | 42.2 µM |  |  |  |  |  |  | 
O=C1c2c(c3c4ccccc4[nH]c3c3[nH]c4ccccc4c23)C(=O)N1Cc1ccccc1 | 11 | 15.6 | 8.57 µM | 9.02 µM | 8.76 µM | 6.16 µM | 13.5 µM | 18.7 | 7.61 µM | 23.7 µM |  |  |  |  |  |  | 
CCN(CC)CCC(=O)/C=C/c1ccc(C)cc1 | 27.5 | 21.9 | 30 µM | 37.5 µM | 26.2 µM | 32.4 µM | 34.5 µM | 30 | 32.6 µM | 32.4 µM |  |  |  |  |  |  | 
COC(=O)C(=O)C(CC(=O)Nc1cccc(C(F)(F)F)c1)C(=O)OC (centres undefined) | > 100 | > 100 | > 100 µM | > 100 µM | > 100 µM | > 100 µM | > 100 µM | > 100 | > 100 µM | > 100 µM |  |  |  |  |  |  | 
O=C1CCC2(c3ccccc3)Nc3ccc(Cl)cc3N12 (centres undefined) | > 100 | > 100 | > 100 µM |  |  | > 100 µM | > 100 µM | > 100 | > 100 µM | > 100 µM |  |  |  |  |  |  | 
Cc1cc(NS(=O)(=O)c2ccc(NC(=O)COC(=O)c3cccc4c(=O)c5ccccc5[nH]c34)cc2)no1 | > 100 | > 100 | > 100 µM | > 100 µM | > 100 µM | > 100 µM | > 100 µM | > 100 | > 100 µM | > 100 µM |  |  |  |  |  |  | 
O=C(NC(=O)c1cc2cc(Br)cc(Br)c2oc1=O)Oc1ccccc1 | 72 | > 100 | > 100 µM | > 100 µM | > 100 µM | > 100 µM | > 100 µM | > 100 | > 100 µM | > 100 µM |  |  |  |  |  |  | 
Cc1ccc(S(=O)(=O)SCc2ccccc2)cc1 | > 100 | 21.7 | 43.9 µM | > 91.7 µM | 26.4 µM | 36.2 µM | > 100 µM | > 100 | > 100 µM | 97.2 µM |  |  |  |  |  |  | 
CN1C(=O)C(=CN(C)c2ccccc2)C(=O)N(C)C1=O | > 100 | > 100 | > 100 µM | > 100 µM | > 100 µM |  | > 100 µM | > 100 | > 100 µM | > 100 µM |  |  |  |  |  |  | 
CC12CC(Sc3ccccc3N1)c1ccccc1O2 (centres undefined) | 31 | 28.9 | 34.6 µM | 30 µM | 29.2 µM | 29.8 µM | 41.9 µM | 48.6 | 33.3 µM | 33.4 µM |  |  |  |  |  |  | 
Cc1cc2c(=O)cc(-c3ccc(F)cc3)oc2c(C(=O)O)c1C | > 100 | > 100 | > 100 µM | > 100 µM | > 100 µM | > 100 µM | > 100 µM | > 100 | > 100 µM | > 100 µM |  |  |  |  |  |  | 
C[C@@](O)(/C=C/[C@H]1CC=CC(=O)O1)[C@@H](C[C@@H](O)\C=C/C=C\C=C\CO)OP(=O)(O)O | 20.4 | 95.9 | 6.55 µM and 3.17 µM | 92.6 µM and 184 µM | 8.87 µM and 11 µM | 91.6 µM and 68.3 µM | 49.6 µM and 57 µM | 15.4 | 19.1 µM and 15 µM | 65.6 µM and 49.1 µM | 1320 | 20.7 | 4.1 | 15 | 13.1 | 11.5 | 14.7

From PubChem BioAssay (NCI)
